The assay has as its system Her2. The assay is described as follows: Her2 degradation in BT-474 cells by Western blot (Method 1). Type of assay: cell-based, Human. To be noted: 0.5 μM, overnight. As to the method:
Human high-Her2 breast carcinoma BT474 (HTB-20), SK-BR-3 (HTB-30) and MCF-7 breast carcinoma (HTB-22) from American Type Culture Collection, Va., USA were grown in Dulbecco's modified Eagle's medium with 4 mM L-glutamine and antibiotics (100 IU/ml penicillin and 100 μg/ml streptomycine; GibcoBRL). To obtain exponential cell growth, cells were trypsinized, counted and seeded at a cell density of 0.5×10^6 cells/ml regularly, every 3 days. All experiments were performed on day 1 after cell passage.
BT-474 cells are treated with 0.5 μM, 2 μM, or 5 μM of 17AAG (a positive control) or 0.5 μM, 2 μM, or 5 μM of a compound of the invention overnight in DMEM medium. After treatment, each cytoplasmic sample is prepared from 1×10^6 cells by incubation of cell lysis buffer (#9803, Cell Signaling Technology) on ice for 10 minutes. The resulting supernatant used as the cytosol fractions is dissolved with sample buffer for SDS-PAGE and run on a SDS-PAGE gel, blotted onto a nitrocellulose membrane by using semi-dry transfer. Non-specific binding to nitrocellulose is blocked with 5% skim milk in TBS with 0.5% Tween at room temperature for 1 hour, then probed with anti-Her2/ErB2 mAb (rabbit IgG, #2242, Cell Signaling) and anti-Tubulin (T9026, Sigma) as housekeeping control protein. […]
On the technique in general: Immunoblotting shows a protein as a band on a membrane.

With `C=CCNC1=C2C[C@@H](C)C[C@H](OC)[C@H](O)[C@@H](C)/C=C(\C)[C@H](OC(N)=O)[C@@H](OC)/C=C\C=C(/C)C(=O)NC(=CC1=O)C2=O` [Compound 17AAG, 17-allylamino-17-demethoxygeldanamycin], the “degradation of Her2” value was “partial degradation of Her2”.

The values are drawn from US9539243B2, “Triazole compounds that modulate HSP90 activity” (Synta Pharmaceuticals Corp., priority 2008, dated 2017).
